The text below walks through data of US12390472B2 (SUZHOU SINOVENT PHARMACEUTICALS CO., LTD., priority 2018, dated 2025).

Data set [1] addresses EZH2 (Y641N) (Homo sapiens (Human), UniProt Q15910, Y641N). As to the kind of experiment: Test on EZH2 (Y641N) inhibitory activity. It counts as biochemical.
Experimental: (§1) Compounds at different concentrations were dissolved in 100% DMSO and transferred to test plates, and the final concentration of DMSO was 1%. Enzyme solution and substrate SAM solution were prepared with 1-fold reaction buffer (optimized Tris buffer). 5 uL of enzyme solution was added to the test plate and wells only added with 5 uL of reaction buffer were used as negative control wells. After incubation at room temperature for 15 min, the plate was added with 5 uL of substrate solution per well to initiate the reaction, and then incubated at room temperature for 60 min. 5 uL of receptor solution was added and the plate was incubated away from light at room temperature for 60 min. 10 uL of donor solution was added and the plate was incubated away from light at room temperature for 30 min. The endpoint values were read on the Envision and the IC50 was calculated.
(§2) Data were fitted by GraphPad Prism 5 software and inhibition rate was calculated according to equation (1) Inh %=(Max−Signal)/(Max−Min)×100 (1)
(§3) IC50 was calculated using equation (2) Y=Bottom+(Top−Bottom)/(1+10^((Log IC50−X)×Hill Slope))
(§4) Y: inhibition rate; X: concentration of the compound
Data set [2] deals with EZH2 (Y641F) (Homo sapiens (Human), UniProt Q15910, Y641F). As to the kind of experiment: Test on EZH2 (Y641F) inhibitory activity. It counts as biochemical.
Experimental: as §1, §2, §3, §4
In data set [3] the target is EZH2 (wt) (Homo sapiens (Human), UniProt Q15910). As to the kind of experiment: Test on EZH2 (wt) inhibitory activity ([3H]-SAM Flashplate). It is filed as biochemical.
Experimental: Protocols Compounds at different concentrations were dissolved in 100% DMSO and transferred to test plates, and the final concentration of DMSO was 1%. The enzyme solution and the mixture solution of peptide and [3H]-SAM were prepared with 1-fold reaction buffer. 10 uL of enzyme solution was added to the test plate and wells only added with 10 uL of reaction buffer were used as negative control wells. After incubation at room temperature for 15 min, the plate was added with 10 uL of the mixture solution of peptide and [3H]-SAM per well to initiate the reaction which lasts for 60 min at room temperature. The pre-cooled SAM was added to 1-fold reaction buffer to prepare a stop buffer. The reaction was stopped by adding 10 uL of stop buffer per well. 25 uL of solution was transferred from the reaction plate to Flashplate and incubated at room temperature for at least 1 h. The Flashplate was washed 3 times with dH2O+0.1% Tween-20. The plate was read by Microbeta.
as §2, §3, §4
Data set [4] is described as follows: In vivo pharmacokinetic properties in mice. Also noted: species or system mouse. As to conditions: male ICR mice; for F: intragastric 250 mg/kg vs intravenous 5 mg/kg; for CL / AUC(0-inf) / Cmax / Tmax / half-life: single intravenous 5 mg/kg and intragastric 250 mg/kg study; for AUC(0-inf) / Cmax / Tmax / half-life: mouse, plasma; for AUC(0-inf) / Cmax / Tmax: oral; for Cmax: read-out: Cmax; for Tmax: read-out: Tmax. The method in brief: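 Male ICR mice, n=3 per group, dosed once at 5 mg/kg IV in 10% DMSO/90% (20% Captisol) or 250 mg/kg intragastrically in 0.5% CMC-Na/0.1% Tween 80 (pH 3-4). EDTA-K2 plasma sampled from 5 min to 24 h; compound levels measured by LC-MS/MS.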

The test system of data set [5] is subcutaneous xenograft tumor model of human B lymphocyte Pfeiffer. The data set is described as follows: In vivo efficacy in subcutaneous xenograft tumor model of human B lymphocyte Pfeiffer. Also noted: species or system mouse. Particulars: SCID Beige mice, tumor volume 21 days after administration. How it is done:
Human B lymphocyte strain Pfeiffer was cultured in vitro, in a monolayer way, in a RPMI-1640 medium containing 10% fetal bovine serum, 100 U/mL penicillin and 100 μg/mL streptomycin in an incubator at 37° C./5% CO2. Conventional medium refreshment and subculturing were carried out twice a week, and cells in logarithmic growth phase were collected and used for tumor inoculation after being counted.
Female SCID Beige mice, aged 6-8 weeks and weighed 18-22 g were used in the experiment. The experiment started after 7-day adaptive feed.
Each mouse was inoculated subcutaneously with 10×10^6 Pfeiffer cells in a volume of 0.2 mL in the right side of the neck. The cells were suspended with PBS and matrigel (volume ratio 1:1). After the average tumor volume reached 130 mm^3, the mice were divided into groups with 8 mice per group for administration. The administration volume was 10 uL/g and the dose was 100 mg/kg if there's no special labeling ((p.o. administration, QD, continuous administration for 21 days).
Animal body weights were measured twice weekly and animal mortality and side effects within each group were recorded based on the number of animals in the group.
The experimental indices were to investigate whether tumor growth was inhibited or delayed or the tumor was cured. Tumor diameters were measured twice weekly using a vernier caliper. The tumor volume was calculated according to the following formula: V=0.5 a×b^2, where a and b represent the long diameter and short diameter of the tumor, respectively. The tumor growth inhibitions (TGIs) of the compounds were evaluated by T/C (%). The percentage value of T/C (%) is an index for reflecting the tumor growth inhibition, where T and C represent the average tumor volume of the administration group and the control group, respectively, at a certain day.
The tumor growth inhibition rate was calculated according to the following formula: TGI (%)=(1−(Ti−T0)/(Vi−V0))×100, where Ti is the average tumor volume of a certain administration group on a certain day, T0 is the average tumor volume of the administration group at the start of administration, Vi is the average tumor volume of the vehicle control group on a certain day (same day as Ti) and V0 is the average tumor volume of the vehicle control group at the start of administration.
Relative tumor volumes at each time point for each group were statistically analyzed and differences among groups were assessed based on the data. The statistical method used for testing was one-way ANOVA.
In general terms: In xenograft studies the graft and the host belong to different species.

Data set [6] has as its system WSU-DLCL2 cells. As to the kind of experiment: Experiment on WSU-DLCL2 cell proliferation (Calcein-AM). It counts as cell-based. As to conditions: Homo sapiens. How it is done:
WSU-DLCL2 cells were plated in a 96-well plate and 100 uL of cells (a density of 1×10^5 cells/mL) and 50 uL of compound stock at 3-fold concentration was added to each well, and the final volume was 150 uL/well. After 6 days of culturing, on day 7, the cells in the well plate were mixed well by pipetting, and 50 uL of the cell suspension was pipetted to be tested for cell viability using Calcein-AM. 50 uL of the cell suspension was added to a 96-well plate coated by poly-D-Lysine, and then 50 uL of HBSS containing 2 uM Calcein-AM was added to make the final concentration of Calcein-AM 1 uM. After incubation for 10 min at room temperature, the cells were rapidly centrifuged to be deposited on the bottom of the plate. The cells were cultured in the incubator for another 40 min and then the plate was read on Acumen.
The remaining cells were diluted and then plated in a 96-well plate, and 100 uL of cells and 50 uL of a compound at 3-fold concentration were added to each well for further culturing until day 14, and the cell viability was detected as described above. The IC50 was calculated.

For data set [7], the system named is Pfeiffer cells. As to the kind of experiment: Experiment on Pfeiffer cell proliferation (CellTiter-Glo). It counts as cell-based, human. As to conditions: Homo sapiens. How it is done:
90 uL of cells were added to each well of a 96-well plate at 12000 cells/well, and cell-free culture medium was added to blank control wells. The plate was incubated overnight in an incubator at 37° C., 5% CO2 and 100% relative humidity. The compounds were diluted from highest to lowest concentration gradient with DMSO to make stock solutions at 400-fold and 10-fold concentration. 10 μL of 10× compound working solution was added to the cell culture plate, and the total concentration of the compound was detected from 10 μM, 9 concentration points in total, and 3-fold serial dilution was performed. 10 μL of DMSO-cell culture medium mixture solution was added to the vehicle control wells and blank control wells. The final concentration of DMSO was 0.25%. The plate was put back in the incubator for another 7 days of culturing.
The cell culture plate cultured for 7 days was taken out of the incubator, and the suspended cells in the 96-well plate were mixed well by pipetting multiple times. 74 uL of fresh cell culture medium was added to a new 96-well plate, and 16 uL of cell suspension was pipetted from the 96-well plate with cells mixed well by pipetting into the new 96-well plate to bring the total volume to 90 uL. Cells in the new 96-well plate were treated with the compound. The new 96-well plate was put back in the incubator for another 7 days of culturing, and then cell viability was detected directly.
84 μL of cell suspension was taken from the cell culture plate for cell viability detection.
CellTiter-Glo buffer and substrate were thawed and balanced to room temperature. The CellTiter-Glo buffer was added to a bottle of CellTiter-Glo substrate to dissolve the substrate, thereby preparing CellTiter-Glo working solution. The bottle was subjected to slow vortex shaking to completely dissolve the substrate. The cell culture plate was taken out and balanced to room temperature for 30 min. 50 μL of CellTiter-Glo working solution was added to each well. The cell plate was wrapped with aluminum foil to keep out of light. The plate was shaken on an orbital shaker for 2 min to induce cell lysis. The plate was placed at room temperature for 10 min to stabilize the luminescence signals. The luminescence signals were detected on 2104 En Vision plate reader.
Inhibition rates of compounds at different concentrations were calculated in Excel, followed by plotting the inhibition curves and calculating relevant parameters including minimum (%), maximum (%), and absolute IC50 using GraphPad Prism software.
(Cellular ATP, detected with luciferase, serves as a proxy for viable cell number.)

SMILES strings stand for the structures. Where two headings read alike, the source gives them in different places.

Sequence of EZH2 (Y641N) (Q15910 whole entry Y641N): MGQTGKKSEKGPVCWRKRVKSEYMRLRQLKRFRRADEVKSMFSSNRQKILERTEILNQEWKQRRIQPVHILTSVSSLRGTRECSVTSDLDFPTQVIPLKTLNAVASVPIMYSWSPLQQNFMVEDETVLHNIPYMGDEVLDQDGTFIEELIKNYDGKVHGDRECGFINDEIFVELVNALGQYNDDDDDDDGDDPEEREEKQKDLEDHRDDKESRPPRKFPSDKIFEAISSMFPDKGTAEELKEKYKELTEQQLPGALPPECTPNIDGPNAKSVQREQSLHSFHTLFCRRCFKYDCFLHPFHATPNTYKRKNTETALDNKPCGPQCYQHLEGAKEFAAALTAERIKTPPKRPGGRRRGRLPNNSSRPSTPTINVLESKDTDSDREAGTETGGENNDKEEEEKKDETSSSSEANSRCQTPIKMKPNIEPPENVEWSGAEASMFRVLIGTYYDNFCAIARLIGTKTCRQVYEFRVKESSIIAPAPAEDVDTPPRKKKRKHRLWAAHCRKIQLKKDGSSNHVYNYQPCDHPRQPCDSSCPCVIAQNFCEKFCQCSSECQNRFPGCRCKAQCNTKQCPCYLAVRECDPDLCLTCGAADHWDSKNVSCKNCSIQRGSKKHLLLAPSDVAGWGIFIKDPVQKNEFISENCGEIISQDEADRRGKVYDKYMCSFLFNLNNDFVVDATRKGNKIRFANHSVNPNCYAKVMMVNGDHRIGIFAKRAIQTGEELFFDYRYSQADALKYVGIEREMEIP
Sequence of EZH2 (Y641N) (O75530 whole entry partner): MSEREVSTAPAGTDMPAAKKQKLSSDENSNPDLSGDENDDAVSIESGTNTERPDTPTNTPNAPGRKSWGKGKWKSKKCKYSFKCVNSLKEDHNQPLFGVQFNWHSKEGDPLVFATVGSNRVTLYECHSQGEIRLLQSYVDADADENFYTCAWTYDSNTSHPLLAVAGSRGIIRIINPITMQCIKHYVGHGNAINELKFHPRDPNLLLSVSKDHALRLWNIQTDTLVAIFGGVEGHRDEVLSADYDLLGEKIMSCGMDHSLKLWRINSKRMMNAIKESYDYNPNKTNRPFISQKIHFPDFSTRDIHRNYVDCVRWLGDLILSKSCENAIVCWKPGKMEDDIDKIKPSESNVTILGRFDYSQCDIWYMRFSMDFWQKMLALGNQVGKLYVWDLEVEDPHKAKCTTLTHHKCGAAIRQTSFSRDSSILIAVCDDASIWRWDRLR
Sequence of EZH2 (Y641N) (Q15022 whole entry partner): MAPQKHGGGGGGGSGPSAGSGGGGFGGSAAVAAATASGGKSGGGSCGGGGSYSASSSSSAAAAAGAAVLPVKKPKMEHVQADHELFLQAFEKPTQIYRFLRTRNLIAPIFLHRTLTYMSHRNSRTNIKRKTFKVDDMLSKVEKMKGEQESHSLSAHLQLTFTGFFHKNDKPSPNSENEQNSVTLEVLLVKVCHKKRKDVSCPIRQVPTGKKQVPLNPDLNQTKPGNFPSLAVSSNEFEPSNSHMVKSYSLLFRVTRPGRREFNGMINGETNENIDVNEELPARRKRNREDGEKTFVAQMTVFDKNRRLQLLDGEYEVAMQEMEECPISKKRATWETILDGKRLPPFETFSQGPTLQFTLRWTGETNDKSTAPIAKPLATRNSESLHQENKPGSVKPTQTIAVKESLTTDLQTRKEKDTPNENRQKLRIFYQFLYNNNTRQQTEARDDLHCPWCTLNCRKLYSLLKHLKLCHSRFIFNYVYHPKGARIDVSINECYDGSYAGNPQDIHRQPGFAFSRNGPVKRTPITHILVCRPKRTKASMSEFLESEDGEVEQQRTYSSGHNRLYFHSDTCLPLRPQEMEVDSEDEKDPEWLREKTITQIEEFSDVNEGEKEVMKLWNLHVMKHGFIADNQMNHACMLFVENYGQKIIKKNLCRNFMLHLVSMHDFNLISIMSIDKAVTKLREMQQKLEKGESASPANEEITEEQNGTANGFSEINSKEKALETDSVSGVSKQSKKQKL
Sequence of EZH2 (wt) (Q15910 whole entry): as the sequence (Q15910 whole entry Y641N) above, with N641Y counted along it
Sequence of EZH2 (wt) (O75530 whole entry partner): as the sequence (O75530 whole entry partner) above
Sequence of EZH2 (wt) (Q15022 whole entry partner): as the sequence (Q15022 whole entry partner) above
Sequence of EZH2 (Y641F) (Q15910 whole entry Y641F): as the sequence (Q15910 whole entry Y641N) above, with N641F counted along it
Sequence of EZH2 (Y641F) (O75530 whole entry partner): as the sequence (O75530 whole entry partner) above
Sequence of EZH2 (Y641F) (Q15022 whole entry partner): as the sequence (Q15022 whole entry partner) above

For orientation: AUC(0-inf) means the area under the concentration-time curve extrapolated to infinity. As a reminder, the Cmax is the highest concentration seen after dosing. As a reminder, the Tmax is the time at which the peak concentration occurs. As a reminder, the half-life is the time needed for the level to fall by half in the phase considered. Lower therefore signals rapid decline. By TGI is commonly meant how far tumour growth fell short of that in controls. In data set [1], `CCN(c1cc(O[C@H]2C[C@H](N3C[C@@H](C)O[C@@H](C)C3)C2)cc(C(=O)NCc2c(OC)cc(C)[nH]c2=O)c1C)C1CC2CCC(C1)O2` (stereo partly drawn) [Example 88, 3-((8-oxabicyclo[3.2.1]octan-3-yl)(ethyl)amino)-5-(trans-3-(cis-2,6-dimethylmorpholinyl)cyclobutoxy)-N-((4-methoxy-6-methyl-2-oxo-1,2-dihydropyridin-3-yl)methyl)-2-methylbenzamide] gave an IC50 of 2 nM. The same compound showed an IC50 in data set [2] of 3.3 nM. The compound further registered an IC50 in data set [3] of 1.1 nM. In data set [4], the F is listed as 33.4%, the CL was determined as 60.4 ± 0.15 mL/min/lg, the AUC(0-inf) is 23000 ± 4540 ng·h/mL and the maximum concentration (Cmax) came to 10200 ± 1450 ng/mL. Further, in data set [4], the time of peak concentration (Tmax) was determined as 0.5 h and the half-life was 2.26 ± 0.87 h. For the same compound, in data set [5] (100 mg/kg p.o. QD 21 days), the tumour growth inhibition (TGI) is on record as 32.83%.
Take `CCN(c1cc(O[C@H]2C[C@H](N3CCCCC3)C2)cc(C(=O)NCc2c(O)cc(C)[nH]c2=O)c1C)C1CCC(F)(F)CC1` [Example 94, 3-((4,4-difluorocyclohexyl)(ethyl)amino)-N-((4-hydroxy-6-methyl-2-oxo-1,2-dihydropyridin-3-yl)methyl)-2-methyl-5-(trans-3-(piperidin-1-yl)cyclobutoxy)benzamide]: the IC50 was determined as 100 nM in data set [1], 123 nM in data set [2] and 145 nM in data set [3].
The compound `CCN(c1cc(O[C@H]2C[C@H](N3CCCCC3)C2)cc(C(=O)NCc2c(C)cc(C)[nH]c2=O)c1C)C1CCOCC1` [Example 92] came in with an IC50 in data set [1] of less than 0.51 nM. This compound displayed an IC50 in data set [2] of less than 0.51 nM. In data set [3], the IC50 is 0.52 nM. For the same compound, in data set [4], the F was found to be 48.6%, the CL amounted to 80.84 ± 5.78 mL/min/lg, the AUC(0-inf) worked out at 25200 ± 4540 ng·h/mL and the Cmax turned out to be 9440 ± 1000 ng/mL. In data set [4], the time to peak (Tmax) was 0.58 ± 0.38 h and the half-life is 2.03 ± 1.14 h.
On to `CCN(c1cc(O[C@H]2C[C@H](N3CCCCC3)C2)cc(C(=O)NCc2c(OC)cc(C)[nH]c2=O)c1C)C1CCC(F)(F)CC1` [Example 91, 3-((4,4-difluorocyclohexyl)(ethyl)amino)-N-((4-methoxy-6-methyl-2-oxo-1,2-dihydropyridin-3-yl)methyl)-2-methyl-5-(trans-3-(piperidin-1-yl)cyclobutoxy)benzamide], for which the IC50 in data set [6] (WSUDLCL2, 168 h, WSU-DLCL2, Day 7, read-out: IC50 WSU-DLCL2 proliferation Day 7) was 24 nM. For the same compound, the IC50 in data set [6] (WSUDLCL2, 336 h, WSU-DLCL2, Day 14, read-out: IC50 WSU-DLCL2 proliferation Day 14) was 6 nM. Moreover, in data set [7] (168 h, Day 7, read-out: IC50 Pfeiffer proliferation Day 7), the IC50 worked out at 6 nM. In data set [7] (336 h, Day 14, read-out: IC50 Pfeiffer proliferation Day 14), the IC50 worked out at 2 nM. Besides, in data set [4], the F is 82.3%, the CL worked out at 66.9 ± 3.70 mL/min/lg, the area under the curve AUC(0-inf) is 51600 ng·h/mL and the Cmax was 9350 ± 1900 ng/mL. In data set [4], the time of peak concentration (Tmax) was found to be 1.67 ± 0.58 h and the half-life was 7.72 ± 3.14 h. The compound further registered a TGI in data set [5] (50 mg/kg p.o. QD 21 days) of 89.39%.
The compound `CCN(c1cc(O[C@H]2C[C@H](N3CCCCC3)C2)cc(C(=O)NCc2c(OC)cc(C)[nH]c2=O)c1C)C1CCOCC1` [Example 93, 3-(ethyl(tetrahydro-2H-pyran-4-yl)amino)-N-((4-methoxy-6-methyl-2-oxo-1,2-dihydropyridin-3-yl)methyl)-2-methyl-5-(trans-3-(piperidin-1-yl)cyclobutoxy)benzamide] returned an IC50 in data set [1] of less than 0.51 nM. The IC50 in data set [2] is less than 0.51 nM. This compound came in with an IC50 in data set [3] of less than 0.51 nM. For the same compound, in data set [4], the F turned out to be 23.1%, the CL was 45.17 ± 4.21 mL/min/lg, the total exposure AUC(0-inf) was 21500 ± 2110 ng·h/mL and the maximum concentration (Cmax) is 10700 ± 4120 ng/mL. Besides, in data set [4], the time to peak (Tmax) was 0.33 ± 0.14 h and the half-life was 1.3 ± 0.64 h.
